Results published in publication PMC9964957, “A Liquid Chromatography Tandem Mass Spectrometry Method for the Simultaneous Estimation of the Dopamine Receptor Antagonist LE300 and Its N-methyl Metabolite in Plasma: Application to a Pharmacokinetic Study” (Molecules, 2023).
Read-outs that look alike come from different tables or passages of the source.

Experiments:
[1] = rat plasma
[2] = in vivo; conditions: male, Wistar, rat, plasma, po, 10 mg/kg
[3] = Stability in stock preparations; format: physicochemical; conditions: stock preparations kept at −80 °C for 28 days
Protocol: LE300 and MLE300 stock solutions were prepared separately in a mixture of methanol and water (1:1) at a concentration of 1 mg/mL. Ponatinib (IS) stock solution was prepared in DMSO at 1 mg/mL. […] Successive working solutions of LE300 and MLE300 were additionally obtained through dilution using ultrapure water at concentrations of 0.05, 0.5, 5, and 20 µg/mL. A working solution of IS was prepared in ultrapure water at a concentration of 20 ng/mL. Two calibrators at concentrations ranged from 1 to 200 ng/mL and 2 to 200 ng/mL for LE300 and MLE300, respectively, were prepared in blank rat plasma from the intermediate solutions. Different quality control samples for LE300 at 1.0 ng/mL for the LLOQ, 3.0 ng/mL for the QC sample at low concentration, (LOQ), 75 ng/mL for the QC sample at mid concentration (MQC), and 175 ng/mL for the QC sample at high concentration (HQC) were prepared by spiking an appropriate volume of the intermediate solutions with blank rat plasma. Similarly, different quality control samples for MLE300 at 2.0, 6.0, 90, and 180 ng/mL for LLOQ, LOQ, MQC, and HQC were prepared. The peak area ratios of LE300 and MLE300 to IS were treated to obtain the calibration curve of each drug. Alternatively, the corresponding regression equation was derived.

[4] = high QC (nominal 175 ng/mL LE300, 180 ng/mL MLE300)
[5] = low QC (nominal 3 ng/mL LE300, 6 ng/mL MLE300)

Row | CL/F (total clearance of the drug from plasma after oral administration) (rat, in vivo, po, 10 mg/kg) [L/h] | Autosampler Stability (24 h at 15 °C) [1, 4] [%] | Freeze-Thaw Stability (3 cycles, −80 °C) [1, 4] [%] | Long-Term Stability (−80 °C for 28 d) [1, 4] [%] | Short-Term Stability (4 h at Room T) [1, 4] [%] | Autosampler Stability (24 h at 15 °C) [1, 5] [%] | Freeze-Thaw Stability (3 cycles, −80 °C) [1, 5] [%] | Long-Term Stability (−80 °C for 28 d) [1, 5] [%] | Short-Term Stability (4 h at Room T) [1, 5] [%] | AUC(0-inf) [2] [ng·h/mL] | AUC(0-t) [2] [ng·h/mL] | Tmax [2] [h] | half-life [2] [h] | Cmax ([2]; Cmax (maximum plasma concentration), rat plasma, single oral dose 10 mg/kg LE300, mean ± SD, six rats) [ng/mL] | Stability in stock preparations [3] | CL/F (total clearance of the drug from plasma after oral administration) (rat plasma, single oral dose 10 mg/kg LE300, mean ± SD, six rats) [L/h] | Cmax [2] [ng/mL] | SMILES
1 | 0.017 ± 0.01 | 98.9 ± 1.3 | 99.2 ± 1.3 | 99.2 ± 1.7 | 98.3 ± 1.8 | 98.5 ± 1.8 | 97.9 ± 1.5 | 97.7 ± 1.4 | 98.5 ± 1.6 | 577 ± 22.4 | 524 ± 24.3 | 2 ± 0.18 | 7.38 ± 0.17 | 151 ± 12.5 | perfect stability | – | – | CN1CCc2ccccc2Cc2[nH]c3ccccc3c2CC1 [LE300, 7-methyl-6,7,8,9,14,15-hexahydro-5Hbenz[d]indolo[2,3-g]azecine]
2 | – | 98.5 ± 1.7 | 99.5 ± 1.5 | 99.2 ± 2.3 | 98.8 ± 1.8 | 99.3 ± 1.7 | 98.2 ± 1.4 | 98.9 ± 1.4 | 97.9 ± 1.6 | 790 ± 37.2 | 762 ± 34.3 | 3 ± 0.18 | 4.56 ± 0.29 | – | perfect stability | 0.012 ± 0.01 | 170 ± 26.3 | CN1CCc2ccccc2Cc2c(c3ccccc3n2C)CC1 [MLE300]
